From patent US12496308B2
Structures can show the parent of a compound that is named as a salt.

Columns and labels:
[1] = Solid state stability (hydrolysis to the phenol) at room temperature
[2] = Stability and pH of aqueous solutions; assay type: physicochemical; details: for longer term stability of solutions: solutions at RT
Procedure: Water is added and the mixture is stirred or sonicated. Yields 10 mg/ml to 20 mg/ml solutions stable for at least 24 hrs.

[3] = Bioconversion of prodrug salt in mouse plasma in vitro; assay type: in vitro ADME; details: 20° C.
[4] = system: middle cerebral artery occlusion (MCAo) model; test: MCAo stroke model - neurological outcome; details: mouse, in vivo
Procedure: To mimic this injury in mice, an intraluminal monofilament model of middle cerebral artery occlusion (MCAo) is used. Occlusion is achieved by inserting a surgical filament into the external carotid artery (ECA) and threading it forward into the internal carotid artery (ICA) until the tip blocks the origin of the MCA. […] This technique is used to study a temporary occlusion in which the MCA is blocked for one hour. The filament is then removed allowing reperfusion to occur for 24 hours before the animal's brain is imaged using T2-weighted scans in a 9.4T Bruker MRI scanner at the Case Center for Imaging Research (FIG. 7).
Neurological Outcome—In the same experiment as above, animals are scored for neurological outcome on a simple 5 point scale described in Manley, G. T. et al., Aquaporin-4 Deletion in Mice Reduces Brain Edema After Acute Water Intoxication and Ischemic Stroke, Nature Medicine, 6, 159-163 (2000).

[5] = system: middle cerebral artery occlusion (MCAo) model; test: MCAo stroke model - cerebral edema (hemispheric brain volume by MRI)
Procedure: To mimic this injury in mice, an intraluminal monofilament model of middle cerebral artery occlusion (MCAo) is used. Occlusion is achieved by inserting a surgical filament into the external carotid artery (ECA) and threading it forward into the internal carotid artery (ICA) until the tip blocks the origin of the MCA. […] This technique is used to study a temporary occlusion in which the MCA is blocked for one hour. The filament is then removed allowing reperfusion to occur for 24 hours before the animal's brain is imaged using T2-weighted scans in a 9.4T Bruker MRI scanner at the Case Center for Imaging Research (FIG. 7). […] Solid line highlights the region of infarct in the MCAo brain.
Cerebral Edema—Mice are given saline or treated with 2-{[3,5-bis(trifluoromethyl)phenyl]carbamoyl}-4-chlorophenyl phosphate disodium salt (Compound 5) by multi-dosing at 5 mg/kg i.p. every three hours (n=8 per treatment). […] Ipsilateral and contralateral hemispheric volume is measured from the T2-weighted MR images of mice 24 hours post-icus. Relative change in hemispheric volume is calculated as a percent of the difference between ipsilateral brain volume (Vi) and contralateral brain volume (Vc) relative to the contralateral brain volume (Percent Change in Hemispheric Brain Volume=((Vi−Vc)/Vc)×100%.

[6] = system: mouse water toxicity model for cerebral edema; test: Mouse water toxicity model - brain volume by MRI; assay type: in vivo
Procedure: Mouse Water Toxicity Model—Brain Volume by Magnetic Resonance Imaging (MRI): MRI is used to measure changes in brain volume in response to water shock, using the water toxicity model. As described for the survival and brain water content studies above, mice are injected, IP, with a water bolus alone or water bolus and test compound at 0.76 mg/kg, and changes in brain volume as detected by MRI are monitored. […] High resolution T2-weighted sagittal scans (resolution=0.1 mm×0.1 mm×0.7 mm) of the mouse head are obtained prior to water injection, 5.67 min post water injection, and then every 5.2 minutes until the animal expires from the water loading. Each scan contains twenty-five 0.7 mm contiguous imaging slices of which 14-15 slices contain a portion of the brain. The cross sectional area of the brain in each imaging slice is measured by manual region-of-interest selection using ImageJ. Brain volumes are then calculated for each scan by summing the individual cross sectional brain areas and multiplying by the slice thickness (0.7 mm).

[7] = system: mouse water toxicity model; test: Mouse water toxicity model - survival curves; details: 0.76 mg/kg, versus placebo
Procedure: Mouse Water Toxicity Model—Survival Curves: The in vivo efficacies of the compounds are tested using the mouse water toxicity model, where a mouse is injected with water at 20% of its body weight. […] The resulting euvolemic hyponatremia rapidly leads to CE, making this a practical model to test an inhibitor of the CNS aquaporin, AQP4b.
The ability of mice to survive H2O toxicity is determined in three experiments using 10-12 mice each (16-19 weak old male/female). Deionized water is prepared for injection with either 0.39 mg/kg phenylbenzamide (placebo) or 0.76 mg/kg with test compound.

With `O=C(Nc1cc(C(F)(F)F)cc(C(F)(F)F)c1)c1cc(Cl)ccc1OP(=O)(O)O` [mono ethanolamine salt] the hydrolysis ([1]; after 5 days at RT) was “about 10%”.

For `O=C(Nc1cc(C(F)(F)F)cc(C(F)(F)F)c1)c1cc(Cl)ccc1OP(=O)(O)O` [bis ethanolamine salt], the “Final pH of solutions” value ([2]; in water) was “about 7.5”, the “longer term stability of solutions” value [2] was “about 1 % per day” and the “hydrolysis in the solid state” value [1] was “about 10 % per day”. For the same molecule, the “time sufficient to render prodrug salt undetectable” value [3] was “Less than 5 minutes”.

With `O=C(Nc1cc(C(F)(F)F)cc(C(F)(F)F)c1)c1cc(Cl)ccc1OP(=O)(O)O` [Formula I] the pH of solution ([2]; 5 mg/mL in 1% Na2HPO4) was “about 7”, the pH of solution ([2]; 5 mg/mL in 2% Na2HPO4) was 7.4 and the “stability at RT” value ([1]; solid sample kept at RT) was “stable at RT for a week or more”.

In the case of `O=C(Nc1cc(C(F)(F)F)cc(C(F)(F)F)c1)c1cc(Cl)ccc1OP(=O)([O-])O.[Na+]` [mono sodium salt], the “longer term stability of solutions” value [2] is reported as “about 1 % per day” and the “hydrolysis in the solid state” value [1] is reported as “about 10 % per day”.

With `O=C(Nc1cc(C(F)(F)F)cc(C(F)(F)F)c1)c1cc(Cl)ccc1OP(=O)([O-])[O-].[Na+].[Na+]` [Compound 5] the “progression to severe paralysis or death” value [4] was “did not progress into a state of severe paralysis or death”, the “longer term stability of solutions” value [2] was “about 1 % per day” and the “hydrolysis in the solid state” value [1] was “about 10 % per day”. The “relative change in ipsilateral brain volume” value ([5]; 24 hours after MCAo, 5 mg/kg i.p. every three hours, n=8, ±SEM) was 4.2±1.7% and the “reduction in brain swelling after MCAo” value ([5]; versus saline controls) was 3.2 fold.

In the case of `O=C(Nc1cc(C(F)(F)F)cc(C(F)(F)F)c1)c1cc(Cl)ccc1O` [Compound 1], the “extent of CE during the period of observation” value ([6]; 0.76 mg/kg) is reported as “reduced”, the “rate of CE development” value ([6]; 0.76 mg/kg IP, fit to single exponential model) is reported as 0.032 min⁻¹ and the “reduction of rate of CE development” value ([6]; 0.76 mg/kg, versus no drug) is reported as 2.5 fold. The “Cerebral Edema Rate by MRI” value ([6]; n=14 mice) was 0.032 min⁻¹, the “improvement of time to 50% survival” value [7] was “roughly 52 min” and the “improvement of percent survival” value ([7]; n=34) was 3.2 fold.
